From article PMC9692424, “In Vitro Screening for Anti-Acetylcholinesterase and Antioxidant Activities of Hottonia palustris L. Extracts and Their Unusual Flavonoids” (Molecules, 2022)
Read-outs that look alike come from different tables or passages of the source.

Experiments:
[1] = ABTS radical cation scavenging activity (Antioxidant Assay Kit); details: compounds 1–19; Trolox equivalents; mean ± SD, triplicate
Experimental: The potential inhibition of the production of the radical cation was measured using an Antioxidant Assay Kit. In short, the mixed solution, including 10 µL of the test sample, 20 µL of the myoglobin working solution, and 150 µL of the ABTS working solution, was incubated for 5 min. Then, 100 µL of the stop solution was added, and the absorbance was measured at 405 nm. All tests were performed in triplicate. The results were expressed as µM of Trolox equivalents obtained from the standard curve.

[2] = target: acetylcholinesterase (AChE) (Homo sapiens, UniProt P22303); test: biochemical
Experimental: Acetylcholinesterase inhibition was determined according to the previously described method [34] with a slight modification. The assay was carried out in Tris-HCl buffer (pH = 8 at 25 °C). The test extracts or compounds were diluted in the same buffer to the appropriate concentrations. Firstly, the reaction mixture containing the sample solution (50 µL), AChE solution (25 µL, 0.25 U/mL), and Ellman’s Reagent (3 mM, 125 µL) was incubated for 15 min at room temperature. Subsequently, 25 µL of ACh iodide (15 mM) was added, and after a further quarter-hour of incubation, the absorbance was estimated at 405 nm. The blank well contained the same amount of Tris-HCl buffer instead of the sample solution. […] All measurements were conducted in triplicate, and the values are presented as IC50 means with standard deviations (SDs). The percent inhibition was calculated using the following formula:Enzyme inhibition activity (%) = (B − S)/B × 100% where B is the blank, and S is the sample absorbance.

[3] = Free radical scavenging activity (DPPH assay); details: compounds 1–19; Trolox equivalents; mean ± SD, triplicate
Experimental: The methanolic solutions of fractions or compounds (130 µL) were added to the DPPH solution (70 µL). The sample’s absorbance was recorded after 30 min of incubation in darkness. All tests were performed in triplicate [33]. The radical scavenging activity of the tested samples was calculated using an equation obtained through linear regression of the Trolox standard curve. The methanolic solutions of fractions or compounds (130 µL) were added to the DPPH solution (70 µL). The sample absorbance was recorded after 30 min of incubation in darkness. All tests were performed in triplicate [33]. The radical scavenging activity of the tested samples was calculated using the equation obtained through linear regression of the Trolox standard curve.

[4] = Cupric ion reducing method (CUPRAC); details: compounds 1–19; Trolox equivalents; mean ± SD, triplicate; na = no significant activity
Experimental: The total antioxidant capacity was determined using an Antioxidant Assay Kit MAK334. In short, 20 µL of each fraction or compound solution was added to 100 µL of the Reaction Mix in the clear, flat-bottomed 96-well plate. The absorbance was measured at 570 nm after 10 min of incubation at room temperature. The results were determined using a standard curve evaluated for Trolox.

[5] = Ferric-reducing antioxidant power method (FRAP); details: compounds 1–19; ferrous ion equivalents; mean ± SD, triplicate; na = no significant activity
Experimental: The ferric-reducing power was measured using the Ferric-Reducing Antioxidant Power Assay Kit. In brief, 10 µL of the tested solution was added to 190 µL of the reaction solutions (containing FRAP Assay Buffer, FeCl3 solution, and FRAP Probe). All of the absorbance values were recorded at 594 nm after 1 h of incubation at 37 °C. The chelating activity was determined using a standard curve and evaluated as mM of ferrous ion equivalents. All tests were performed in triplicate.

[6] = compounds 1–19, mean ± SD, at least triplicate, read-out: AChE IC50

Chain of acetylcholinesterase (AChE) (P22303 32-614): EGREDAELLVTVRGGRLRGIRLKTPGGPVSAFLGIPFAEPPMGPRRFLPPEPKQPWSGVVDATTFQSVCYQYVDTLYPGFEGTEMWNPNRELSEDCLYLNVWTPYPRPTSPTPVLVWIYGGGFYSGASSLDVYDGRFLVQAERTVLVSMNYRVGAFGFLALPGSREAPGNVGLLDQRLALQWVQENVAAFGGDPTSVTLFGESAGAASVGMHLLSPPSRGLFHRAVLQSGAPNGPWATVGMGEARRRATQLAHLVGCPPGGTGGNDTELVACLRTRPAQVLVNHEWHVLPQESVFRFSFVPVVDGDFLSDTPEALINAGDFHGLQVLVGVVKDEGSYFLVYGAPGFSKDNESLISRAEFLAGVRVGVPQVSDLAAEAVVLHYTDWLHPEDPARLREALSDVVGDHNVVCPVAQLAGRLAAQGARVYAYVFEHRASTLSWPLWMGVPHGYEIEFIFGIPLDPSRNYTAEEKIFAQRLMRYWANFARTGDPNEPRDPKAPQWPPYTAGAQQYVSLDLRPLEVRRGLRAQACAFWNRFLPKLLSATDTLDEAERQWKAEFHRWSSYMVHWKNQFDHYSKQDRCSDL

With `COc1ccc(OC)c(-c2cc(=O)c3c(O)cccc3o2)c1OC` [Compound 5, 5-hydroxy-2’,3’,6’-trimethoxyflavone] the ABTS [1] was 280.02 ± 1.55 µM Teq, the IC50 [2, 6] was 284.6 ± 0.8 µM and the DPPH [3] was 34.32 ± 0.97 µM Teq.
`O=C(CC(=O)c1ccccc1)c1ccccc1` [Compound 1, 1,3-diphenylpropane-1,3-dione] showed an ABTS [1] of 300.12 ± 4.97 µM Teq, an IC50 [2, 6] of 144.8 ± 1.3 µM and a DPPH [3] of 39.81 ± 2.76 µM Teq. The CUPRAC [4] was 3.18 ± 0.32 µM Teq.
`C[C@@H]1O[C@@H](OC[C@H]2O[C@@H](Oc3c(-c4ccc(O)c(O)c4)oc4cc(O)cc(O)c4c3=O)[C@H](O)[C@@H](O)[C@@H]2O)[C@H](O)[C@H](O)[C@H]1O` [Compound 19, quercetin 3-O-(6″-O-α-rhamnopyranosyl)-β-glucopyranoside] gave an ABTS [1] of 1149.16 ± 5.25 µM Teq, an IC50 [2] of 445.32 ± 0.35 µM and a DPPH [3] of 1467.53 ± 5.48 µM Teq. It also gave an FRAP [5] of 52.98 ± 1.35 mM Fe^2+/mL and a CUPRAC [4] of 1258.68 ± 3.49 µM Teq.
Work on `O=c1c(OC2OC(COC3OCC(O)C(O)C3O)C(O)C(O)C2O)c(-c2ccc(O)cc2)oc2cc(O)cc(O)c12` (stereo not drawn) [Compound 16, kaempferol-3-O-(6″-O-β-xylopyranosyl)-β-glucopyranoside] yielded an ABTS [1] of 717.32 ± 3.47 µM Teq, an IC50 [2, 6] of 364.3 ± 1.79 µM and a DPPH [3] of 300.29 ± 1.87 µM Teq. The FRAP [5] was 0.67 ± 0.06 mM Fe^2+/mL and the CUPRAC [4] was 74.40 ± 1.49 µM Teq.
In the case of `CC1OC(OCC2OC(Oc3c(-c4ccc(O)cc4)oc4cc(O)cc(O)c4c3=O)C(O)C(O)C2O)C(O)C(O)C1O` (stereo not drawn) [Compound 15, kaempferol 3-O-(6″-O-α-rhamnopyranosyl)-β-glucopyranoside], the ABTS [1] is reported as 702.29 ± 2.47 µM Teq, the IC50 [2, 6] is reported as 407.4 ± 1.41 µM and the DPPH [3] is reported as 250.72 ± 1.65 µM Teq. It also gave an FRAP [5] of 0.40 ± 0.06 mM Fe^2+/mL and a CUPRAC [4] of 56.81 ± 1.52 µM Teq.
Work on `COc1cccc(OC)c1-c1cc(=O)c2c(O)cccc2o1` [Compound 4, 5-hydroxy-2’,6’-dimethoxyflavone] yielded an ABTS [1] of 326.76 ± 6.64 µM Teq, an IC50 [2, 6] of 325.4 ± 3.21 µM and a DPPH [3] of 28.63 ± 2.40 µM Teq.
With `COc1ccccc1-c1cc(=O)c2c(O)cccc2o1` [Compound 3, 5-hydroxy-2′-methoxyflavone] the ABTS [1] was 330.59 ± 4.04 µM Teq, the IC50 [2, 6] was 279.7 ± 0.45 µM and the DPPH [3] was 39.39 ± 1.59 µM Teq.
`O=c1cc(-c2ccccc2)oc2ccc(OC3OC(COC4OC(CO)C(O)C(O)C4O)C(O)C(O)C3O)c(O)c12` (stereo not drawn) [Compound 10, 5,6-dihydroxyflavone 6-O-(6″-O-glucopyranosyl)-β-glucopyranoside] showed an ABTS [1] of 624.94 ± 5.70 µM Teq, an IC50 [2, 6] of 376.1 ± 1.87 µM and a DPPH [3] of 204.31 ± 3.31 µM Teq. For the same compound, the CUPRAC [4] was 19.79 ± 1.03 µM Teq.
With `O=c1cc(-c2ccccc2O[C@@H]2O[C@H](CO)[C@@H](O)[C@H](O)[C@H]2O)oc2cccc(O)c12` [Compound 9, 5,2′-dihydroxyflavone 2′-O-β-glucopyranoside] the ABTS [1] was 204.59 ± 2.26 µM Teq, the IC50 [2, 6] was 399.7 ± 0.64 µM and the DPPH [3] was 170.56 ± 2.49 µM Teq. For the same compound, the CUPRAC [4] was 20.33 ± 1.57 µM Teq.
Compound `COc1ccc2oc(-c3ccccc3O)cc(=O)c2c1O` [Compound 6, 2’,5-dihydroxy-6-methoxyflavone] has an ABTS [1] of 781.28 ± 4.38 µM Teq, an IC50 [2, 6] of 391.8 ± 1.06 µM and a DPPH [3] of 227.55 ± 2.85 µM Teq. For the same compound, the FRAP [5] was 15.81 ± 0.85 mM Fe^2+/mL and the CUPRAC [4] was 366.29 ± 1.24 µM Teq.
Compound `O=c1cc(-c2ccccc2)oc2ccc(O)c(O)c12` [Compound 12, 5,6-dihydroxyflavone] has an ABTS [1] of 1052.41 ± 5.51 µM Teq, an IC50 [2, 6] of 362.2 ± 0.39 µM and a DPPH [3] of 1522.38 ± 7.31 µM Teq. The FRAP [5] was 54.25 ± 1.03 mM Fe^2+/mL and the CUPRAC [4] was 1060.42 ± 5.33 µM Teq.
Work on `COc1ccc(O)c(-c2cc(=O)c3c(O)cccc3o2)c1OC` [Compound 7, 5,6′-dihydroxy-2′,3′-dimethoxyflavone] yielded an ABTS [1] of 277.56 ± 2.88 µM Teq, an IC50 [2, 6] of 390.8 ± 0.66 µM and a DPPH [3] of 37.85 ± 1.90 µM Teq.
`O=c1cc(-c2ccccc2)oc2cc(O)cc(O)c12` [Compound 13, 5,7-dihydroxyflavone] gave an ABTS [1] of 728.26 ± 1.08 µM Teq, an IC50 [2, 6] of 330.1 ± 1.77 µM and a DPPH [3] of 227.51 ± 1.83 µM Teq. For the same compound, the FRAP [5] was 0.08 ± 0.01 mM Fe^2+/mL.
`O=c1cc(-c2ccccc2)oc2cccc(O)c12` [Compound 2, 5-hydroxyflavone] showed an ABTS [1] of 317.47 ± 3.91 µM Teq, an IC50 [2, 6] of 314.4 ± 1.72 µM and a DPPH [3] of 41.71 ± 2.28 µM Teq.
With `O=c1cc(-c2ccccc2O)oc2cccc(O)c12` [Compound 11, 5,2′-dihydroxyflavone] the ABTS [1] was 661.30 ± 3.81 µM Teq, the IC50 [2, 6] was 371.5 ± 0.66 µM and the DPPH [3] was 175.83 ± 2.83 µM Teq. The FRAP [5] was 0.07 ± 0.01 mM Fe^2+/mL and the CUPRAC [4] was 44.50 ± 1.35 µM Teq.
`O=c1c(O)c(-c2ccc(O)cc2)oc2cc(O)cc(O)c12` [Compound 17, kaempferol] gave an ABTS [1] of 1095.04 ± 1.85 µM Teq, an IC50 [2] of 276.9 ± 1.41 µM and a DPPH [3] of 792.53 ± 7.31 µM Teq. The FRAP [5] was 36.87 ± 1.20 mM Fe^2+/mL and the CUPRAC [4] was 848.64 ± 3.49 µM Teq.
`O=c1c(OC2OC(COC3OCC(O)C(O)C3O)C(O)C(O)C2O)c(-c2ccc(O)c(O)c2)oc2cc(O)cc(O)c12` (stereo not drawn) [Compound 18, quercetin 3-O-(6″-O-β-xylopyranosyl)-β-glucopyranoside] gave an ABTS [1] of 1147.52 ± 7.06 µM Teq, an IC50 [2, 6] of 303 ± 3.33 µM and a DPPH [3] of 1336.75 ± 6.33 µM Teq. For the same compound, the FRAP [5] was 63.98 ± 1.75 mM Fe^2+/mL and the CUPRAC [4] was 1401.11 ± 2.64 µM Teq.
